According to ChEMBL document CHEMBL2074007, “Characterization of the transport of nucleoside analog drugs by the human multidrug resistance proteins MRP4 and MRP5” (Mol Pharmacol, 2003):
pIC50: −log10 of the molar value.

Key:
MRP5 (ABCC5) = MRP5 (ABCC5) (Homo sapiens, UniProt O15440); experiment: TP_TRANSPORTER: inhibition of alaninyl-d4TMP uptake (alaninyl-d4TMP: 1 uM, Zaprinast: 100uM) in MRP5-expressing HEK293 cells; format: functional, cell-based; design: scale not given: the % may be the effect or the level left; conditions: probe alaninyl-d4TMP (1 uM), read-out: Activity
Chain of MRP5 (ABCC5) (O15440 whole entry): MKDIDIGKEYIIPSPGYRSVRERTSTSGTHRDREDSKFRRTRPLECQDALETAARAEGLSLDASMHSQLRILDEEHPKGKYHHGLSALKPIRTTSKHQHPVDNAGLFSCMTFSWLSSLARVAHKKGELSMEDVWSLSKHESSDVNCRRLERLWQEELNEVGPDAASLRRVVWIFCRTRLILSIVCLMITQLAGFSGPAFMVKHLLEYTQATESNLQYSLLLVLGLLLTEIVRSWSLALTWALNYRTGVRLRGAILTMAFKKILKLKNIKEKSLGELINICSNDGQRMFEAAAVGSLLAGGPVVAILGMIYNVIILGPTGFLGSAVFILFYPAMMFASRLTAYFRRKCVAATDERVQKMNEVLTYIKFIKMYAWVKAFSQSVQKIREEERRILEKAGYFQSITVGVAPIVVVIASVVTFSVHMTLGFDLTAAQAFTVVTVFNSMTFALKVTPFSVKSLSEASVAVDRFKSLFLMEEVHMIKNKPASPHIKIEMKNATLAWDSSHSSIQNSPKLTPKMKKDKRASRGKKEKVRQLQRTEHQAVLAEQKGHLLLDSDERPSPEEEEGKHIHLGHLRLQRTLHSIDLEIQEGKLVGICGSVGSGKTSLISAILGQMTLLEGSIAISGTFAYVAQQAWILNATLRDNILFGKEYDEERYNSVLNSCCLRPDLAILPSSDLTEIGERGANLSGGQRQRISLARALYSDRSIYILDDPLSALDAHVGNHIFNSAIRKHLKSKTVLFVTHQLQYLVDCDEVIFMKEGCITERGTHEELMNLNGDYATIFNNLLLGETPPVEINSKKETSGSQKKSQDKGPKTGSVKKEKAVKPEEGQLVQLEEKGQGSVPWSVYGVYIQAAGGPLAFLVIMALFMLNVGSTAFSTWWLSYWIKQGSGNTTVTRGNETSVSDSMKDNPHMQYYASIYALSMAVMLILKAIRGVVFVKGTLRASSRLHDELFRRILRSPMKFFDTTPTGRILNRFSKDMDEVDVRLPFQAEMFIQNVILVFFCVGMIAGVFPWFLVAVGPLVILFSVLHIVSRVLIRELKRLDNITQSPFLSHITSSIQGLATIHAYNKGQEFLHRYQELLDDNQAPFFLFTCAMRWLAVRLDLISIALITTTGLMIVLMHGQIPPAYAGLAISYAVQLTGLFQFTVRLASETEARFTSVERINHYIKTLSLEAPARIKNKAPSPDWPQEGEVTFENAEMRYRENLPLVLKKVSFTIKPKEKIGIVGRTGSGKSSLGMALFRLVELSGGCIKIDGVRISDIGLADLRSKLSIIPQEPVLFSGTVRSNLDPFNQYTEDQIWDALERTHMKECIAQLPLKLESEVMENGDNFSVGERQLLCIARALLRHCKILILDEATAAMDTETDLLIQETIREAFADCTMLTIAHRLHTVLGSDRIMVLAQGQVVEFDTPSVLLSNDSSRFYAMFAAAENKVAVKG

MRP4 (ABCC4) = target: T1, MRP4 (ABCC4) (Homo sapiens, UniProt O15439); experiment: TP_TRANSPORTER: inhibition of E217betaG uptake (E217betaG: 30 uM, Zaprinast: 100uM) in MRP4-expressing HEK293 cells; format: functional, cell-based; design: scale not given: the % may be the effect or the level left; conditions: probe E217betaG (30 uM), read-out: Activity
T1 sequence (O15439 whole entry): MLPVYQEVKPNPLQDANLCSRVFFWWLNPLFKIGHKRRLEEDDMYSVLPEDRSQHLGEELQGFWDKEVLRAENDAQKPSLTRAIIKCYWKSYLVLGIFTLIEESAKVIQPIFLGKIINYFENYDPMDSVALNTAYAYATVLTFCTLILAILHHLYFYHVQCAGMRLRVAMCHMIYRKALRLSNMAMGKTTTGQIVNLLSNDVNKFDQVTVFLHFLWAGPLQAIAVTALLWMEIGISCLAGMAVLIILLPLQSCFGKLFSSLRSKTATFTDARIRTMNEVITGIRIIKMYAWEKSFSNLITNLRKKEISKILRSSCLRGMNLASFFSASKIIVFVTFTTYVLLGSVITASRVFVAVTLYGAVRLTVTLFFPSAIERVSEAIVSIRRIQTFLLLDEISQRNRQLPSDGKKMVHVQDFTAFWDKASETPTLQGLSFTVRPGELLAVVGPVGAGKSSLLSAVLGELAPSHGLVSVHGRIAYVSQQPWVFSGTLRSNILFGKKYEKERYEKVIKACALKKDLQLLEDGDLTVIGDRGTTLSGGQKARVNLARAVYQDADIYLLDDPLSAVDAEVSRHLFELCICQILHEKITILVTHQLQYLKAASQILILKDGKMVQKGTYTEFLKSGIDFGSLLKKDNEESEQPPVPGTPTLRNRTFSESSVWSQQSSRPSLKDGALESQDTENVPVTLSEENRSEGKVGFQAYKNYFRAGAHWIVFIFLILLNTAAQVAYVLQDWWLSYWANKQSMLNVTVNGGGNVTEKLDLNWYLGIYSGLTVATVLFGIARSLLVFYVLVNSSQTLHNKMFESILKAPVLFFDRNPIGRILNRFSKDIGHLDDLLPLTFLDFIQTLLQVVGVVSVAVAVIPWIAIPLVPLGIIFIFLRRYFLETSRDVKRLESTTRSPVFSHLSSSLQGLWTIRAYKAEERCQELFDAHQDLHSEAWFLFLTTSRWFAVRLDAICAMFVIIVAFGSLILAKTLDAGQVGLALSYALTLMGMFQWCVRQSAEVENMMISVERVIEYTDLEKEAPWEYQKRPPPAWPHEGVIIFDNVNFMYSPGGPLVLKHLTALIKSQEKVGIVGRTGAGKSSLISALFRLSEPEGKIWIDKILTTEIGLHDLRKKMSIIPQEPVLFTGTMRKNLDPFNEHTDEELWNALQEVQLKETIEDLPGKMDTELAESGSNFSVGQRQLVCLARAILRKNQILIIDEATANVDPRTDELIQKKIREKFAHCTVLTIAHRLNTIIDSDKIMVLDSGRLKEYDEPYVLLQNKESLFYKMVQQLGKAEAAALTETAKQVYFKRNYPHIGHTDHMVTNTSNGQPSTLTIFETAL

[1] = target: T2, ATP-binding cassette sub-family C member 4 (Homo sapiens, UniProt O15439); format: functional, cell-based, HEK293
T2 sequence (O15439 whole entry): T1 sequence (O15439 whole entry)

[2] = target: ATP-binding cassette sub-family C member 5 (Homo sapiens, UniProt O15440); format: functional, cell-based, HEK293
Chain of ATP-binding cassette sub-family C member 5 (O15440 whole entry): as the sequence (O15440 whole entry) above

| Structure (SMILES) | activity at 100 µM (MRP5 (ABCC5)) [%] | activity at 100 µM (MRP4 (ABCC4)) [%] | pIC50 [1] | pIC50 [2] |
| --- | --- | --- | --- | --- |
| Nc1nc2c(ncn2[C@@H]2O[C@@H]3COP(=O)(O)O[C@H]3[C@H]2O)c(=O)[nH]1 | 37 | 48 | – | – |
| COc1cc(C(=O)OCCCN2CCCN(CCCOC(=O)c3cc(OC)c(OC)c(OC)c3)CC2)cc(OC)c1OC [DILAZEP] | – | – | 4.70 | < 4.30 |
| CN(C)C(=O)CCSC(SCCC(=O)O)c1cccc(/C=C/c2ccc3ccc(Cl)cc3n2)c1 (stereo not given) [MK-571] | – | – | – | 4.40 |
| O=[N+]([O-])c1ccc(CSc2ncnc3c2ncn3[C@@H]2O[C@H](CO)[C@@H](O)[C@H]2O)cc1 [NITROBENZYLMERCAPTOPURINE RIBONUCLEOSIDE] | – | – | 4.12 | – |
| COc1cc2c(cc1OC)-c1c/c(=N\c3c(C)cc(C)cc3C)n(C)c(=O)n1CC2 [TREQUINSIN] | – | – | 5.00 | 4.52 |
| CCCOc1ccccc1-c1nc2nn[nH]c2c(=O)[nH]1 [ZAPRINAST] | 12 | 7 | – | – |
